In US20230348475A1, “IMIDAZOPYRIDAZINE AND IMIDAZOPYRAZINE COMPOUNDS AS INHIBITORS OF CDK7” (THE TRANSLATIONAL GENOMICS RESEARCH INSTITUTE, priority 2020, published 2023) one finds IC50 data, which are given here for nine compounds.

The target of assay [1] is CDK7/CycH/MAT1 (Homo sapiens, UniProt P50613). In words: Kinase Glo (ADP-Glo) biochemical assay, CDK7. The following applies: CDK7/CycH/MAT1 40 ng, ATP 1 μM, 60 minutes at RT, luminescence. The gist of the method: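 Enzyme (40 ng), RB-CTF peptide substrate (200 ng or 400 ng) and 1 μM ATP reacted in HEPES pH 7.5 buffer with MgCl2, MnCl2, DTT and Na3VO4 for 60 min at RT. Ten-point compound dilutions were tested from 30 μM final. ADP formed was read by ADP-Glo luminescence.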
Sequence of CDK7/CycH/MAT1 (P50613 whole entry): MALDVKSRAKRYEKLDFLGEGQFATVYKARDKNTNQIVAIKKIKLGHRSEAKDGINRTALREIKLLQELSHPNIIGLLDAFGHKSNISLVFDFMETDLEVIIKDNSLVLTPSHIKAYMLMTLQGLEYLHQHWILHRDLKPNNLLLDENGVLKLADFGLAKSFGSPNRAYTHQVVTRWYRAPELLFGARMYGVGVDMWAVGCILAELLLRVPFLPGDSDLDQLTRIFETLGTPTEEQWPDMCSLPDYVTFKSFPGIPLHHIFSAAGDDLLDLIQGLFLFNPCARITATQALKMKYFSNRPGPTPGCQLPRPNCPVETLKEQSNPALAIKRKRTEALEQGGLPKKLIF
Sequence of CDK7/CycH/MAT1 (P51946 whole entry partner): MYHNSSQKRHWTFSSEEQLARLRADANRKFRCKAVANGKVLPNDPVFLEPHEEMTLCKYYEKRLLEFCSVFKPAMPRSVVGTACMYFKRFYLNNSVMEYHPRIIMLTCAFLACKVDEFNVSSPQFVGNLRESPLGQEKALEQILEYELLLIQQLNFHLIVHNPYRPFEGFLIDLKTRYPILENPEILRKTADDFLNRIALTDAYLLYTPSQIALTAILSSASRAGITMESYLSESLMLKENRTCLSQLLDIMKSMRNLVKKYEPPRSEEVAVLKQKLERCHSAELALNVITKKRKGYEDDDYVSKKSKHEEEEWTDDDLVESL
Sequence of CDK7/CycH/MAT1 (P51948 whole entry partner): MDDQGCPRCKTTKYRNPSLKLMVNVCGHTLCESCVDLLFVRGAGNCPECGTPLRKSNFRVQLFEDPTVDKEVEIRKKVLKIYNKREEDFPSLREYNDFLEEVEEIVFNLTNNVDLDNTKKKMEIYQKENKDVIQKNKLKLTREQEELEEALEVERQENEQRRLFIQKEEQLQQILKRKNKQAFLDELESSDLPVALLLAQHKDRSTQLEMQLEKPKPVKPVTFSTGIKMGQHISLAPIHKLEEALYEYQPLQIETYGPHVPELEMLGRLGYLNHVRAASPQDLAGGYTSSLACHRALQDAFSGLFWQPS
A general note: In Kinase-Glo more light means more ATP remaining.

Assay [2] relates to MiaPaCa2 pancreatic cancer cell line. In words: Cell viability assay (Cell Titer Glo), MiaPaCa2. The following applies: Homo sapiens, MIA PaCa-2, 72 hour incubation. It counts as cell-based. Here is the method:
(§1) Materials: • Cell Lines (Treated according to ATCC guidelines) • Cell Titer Glo (Promega Cat #G7572) • DMSO • 96-well White Tissue Culture Treated Plates (Perkin Elmer Cat #60005680)
(§2) Cells were seeded in a white 96-well tissue culture treated plate at a density of 1500 cells in 90 μL of media per well and allowed to settle overnight. A ten point serial dilution of drugs was prepared at 10×concentration in media with the final assay concentrations starting at 30 μM, 10 μM, 3 μM, 1 μM, 0.3 μM . . . 0 μM. A dilution of DMSO was included as a control. The assay was set up by adding 10 μL of the corresponding drug to each well in duplicate, followed by a 72 hour incubation at 37° C., 5% CO2. Cell viability was quantified by adding 90 μL of Cell Titer Glo to each well and incubating at room temperature for 10 minutes. The reaction was quantified by measuring luminescence using the Envision Plate Reader. Data was analyzed using Graphpad Prism 7 software.

Assay [3] has as its system HPAC pancreatic cancer cell line. In words: Cell viability assay (Cell Titer Glo), HPAC. It counts as cell-based. The note with it: Homo sapiens, HPAC, 72 hour incubation. The protocol:
as §1, §2

Assay [4] concerns MDA-MB-231 breast cancer cell line. Kind of assay: Cell viability assay (Cell Titer Glo), MDA-MB-231. It counts as cell-based. The following applies: Homo sapiens, MDA-MB-231, 72 hour incubation. The protocol: as §1, §2
For assay [5], the system named is MDA-MB436 cells. In words: Cell viability assay (Cell Titer Glo), MDA-MB436. It is filed as cell-based. The note with it: Homo sapiens, MDA-MB-436; Table 7b; 72 hour incubation. The protocol: as §2, with “Cell Viability Assay Materials: • Cell Lines (Treated according to ATCC guidelines) • Cell Titer Glo (Promega Cat #G7572) • DMSO • 96-well White Tissue Culture Treated Plates (Perkin Elmer Cat #60005680) Method: Cells” for “Cells”, “μ[…]” for “μM, 10 μM, 3 μM, 1 μM, 0.3 μM . . . 0 μM. A”
(In general: Cellular ATP, detected with luciferase, serves as a proxy for viable cell number.)

Assay [6] relates to MDA-MB468 cells. Kind of assay: Cell viability assay (Cell Titer Glo), MDA-MB468. The note with it: Homo sapiens, MDA-MB-468; Table 7b; 72 hour incubation. It counts as cell-based. The protocol:
as §2, with “Cell Viability Assay Materials: • Cell Lines (Treated according to ATCC guidelines) • Cell Titer Glo (Promega Cat #G7572) • DMSO • 96-well White Tissue Culture Treated Plates (Perkin Elmer Cat #60005680) Method: Cells” for “Cells”, “μ[…]” for “μM, 10 μM, 3 μM, 1 μM, 0.3 μM . . . 0 μM. A”

For assay [7], the system named is Kasumi1 leukemia cancer cell line. Kind of assay: Cell viability assay (Cell Titer Glo), Kasumi1. The note with it: Homo sapiens, Kasumi 1, Table 7a, 72 hour incubation. It counts as cell-based. Here is the method: as §1, §2
For assay [8], the system named is A2780 ovarian cancer cell line. In words: Cell viability assay (Cell Titer Glo), A2780. It is filed as cell-based. The following applies: Homo sapiens, A2780, Table 7a, 72 hour incubation. The protocol:
as §1, §2

The subject of assay [9] is A673 Ewingsarcoma cell line. In words: Cell viability assay (Cell Titer Glo), A673. It is filed as cell-based. The following applies: Homo sapiens, A673, Table 7a, 72 hour incubation. Here is the method:
as §1, §2

The mark [10] stands for this setting: Table 7a, pancreatic cancer cell line.
Where [11] appears, read: Table 7a, breast cancer cell line.

Where a name gives a salt, the structure may show the parent alone. Read-outs that look alike come from different tables or passages of the source. A value given as a limit tells only on which side of the number the result lay.

As to `Fc1cccc(Nc2cc(O[C@H]3CCCNC3)nn3c(C4CC4)cnc23)c1` [Compound I-1], the 50% inhibitory concentration (IC50) is under 100 nM in assay [1]; under 1000 nM in [2] (Table 7b, read-out: IC50 MIA PaCa2); 1000 to 5000 nM in assay [3] (Table 7b); 1000 to 5000 nM in assay [4] (Table 7b, read-out: IC50 MDA-MB231); 1000 to 5000 nM in assay [5]; 1000 to 5000 nM in assay [6].
For the compound `COc1ccccc1CNc1cc(SC2CCNCC2)nn2c(C(C)C)cnc12` [Compound 35, hydrochloride], the half-inhibitory concentration (IC50) in [1] is under 100 nM; in assay [2] (setting [10]), under 1000 nM; in assay [3] (setting [10]), under 1000 nM; in assay [7], 1000 to 5000 nM; in assay [4] (setting [11]), 1000 to 5000 nM; in assay [8] it was under 1000 nM. In addition, the IC50 in [9] is under 1000 nM.
For `CC(C)c1cnc2c(NCc3ccccc3OC(F)(F)F)cc(SC3CCCNC3)nn12` (centres unmarked) [Compound 37, 3-isopropyl-6-(piperidin-3-ylthio)-N-(2-(trifluoromethoxy)benzyl)imidazo[1,2-b]pyridazin-8-amine], the half-inhibitory concentration (IC50) in [1] is under 100 nM; in [2] (setting [10]) it was 1000 to 5000 nM; in [3] (setting [10]), 1000 to 5000 nM; in [7] it was 1000 to 5000 nM; in assay [4] (setting [11]) it was 1000 to 5000 nM; in assay [8], 1000 to 5000 nM. In assay [9], this compound gave a half-inhibitory concentration (IC50) of 1000 to 5000 nM.
For `COc1ccccc1CNc1cc(SC2CCCNC2)nn2c(C(C)C)cnc12` (centres unmarked) [Compound 36, hydrochloride], the 50% inhibitory concentration (IC50) in assay [1] was under 100 nM; in [2] (setting [10]) it was 1000 to 5000 nM; in assay [3] (setting [10]), 1000 to 5000 nM; in assay [7], 1000 to 5000 nM; in assay [4] (setting [11]) it was 1000 to 5000 nM; in assay [8] it was under 1000 nM. The compound further yielded a half-maximal inhibitory concentration (IC50) in assay [9] of 1000 to 5000 nM.
As for `CC(C)c1cnc2c(Nc3cccc(F)c3)cc(O[C@H]3CCCNC3)nn12` [Compound 39, (S)-N-(3-fluorophenyl)-3-isopropyl-6-(piperidin-3-yloxy)imidazo[1,2-b]pyridazin-8-amine hydrochloride], the IC50 in [1] is under 100 nM; in assay [2] (setting [10]), 1000 to 5000 nM; in [3] (setting [10]) it was 1000 to 5000 nM; in assay [7] it was 1000 to 5000 nM; in assay [4] (setting [11]), 1000 to 5000 nM; in assay [8], 1000 to 5000 nM. Also, the IC50 in assay [9] lay in the range of 1000 to 5000 nM.
Turning to `CC(C)c1cnc2c(Nc3cccc(F)c3)cc(NC3CCNCC3)nn12` [Compound 45, N8-(3-fluorophenyl)-3-isopropyl-N6-(piperidin-4-yl)imidazo[1,2-b]pyridazine-6,8-diamine hydrochloride], the IC50 was under 100 nM in assay [1]; under 1000 nM in assay [2] (setting [10]); 1000 to 5000 nM in assay [3] (setting [10]); 1000 to 5000 nM in assay [7]; 1000 to 5000 nM in [4] (setting [11]); 1000 to 5000 nM in assay [8]. Also, the IC50 in [9] was in the range of 1000 to 5000 nM.
As to `COc1ccccc1CNc1cc(NC2CCNCC2)nn2c(C(C)C)cnc12` [Compound 40, 3-isopropyl-N8-(2-methoxybenzyl)-N6-(piperidin-4-yl)imidazo[1,2-b]pyridazine-6,8-diamine hydrochloride], the 50% inhibitory concentration (IC50) in [1] was under 100 nM; in assay [2] (setting [10]) it was 1000 to 5000 nM; in assay [3] (setting [10]), 1000 to 5000 nM; in assay [7], over 5000 nM; in [4] (setting [11]) it was 1000 to 5000 nM; in assay [8], 1000 to 5000 nM. In addition, the IC50 in [9] lay in the range of 1000 to 5000 nM.
In the case of `CC(C)c1cnc2c(Nc3cccc(F)c3)cc(SC3CCNCC3)nn12` [Compound 44, N-(3-fluorophenyl)-3-isopropyl-6-(piperidin-4-ylthio)imidazo[1,2-b]pyridazin-8-amine hydrochloride], the half-maximal inhibitory concentration (IC50) in [1] was under 100 nM; in assay [2] (setting [10]), under 1000 nM; in [3] (setting [10]) it was under 1000 nM; in assay [7] it was under 1000 nM; in assay [4] (setting [11]) it was under 1000 nM; in [8] it was under 1000 nM. This compound also came in with an IC50 in assay [9] of under 1000 nM.
Regarding `CC(C)c1cnc2c(N[C@@H](C)c3ccccc3)cc(SC3CCNCC3)nn12` [Compound 24, (S)-3-isopropyl-N-(1-phenylethyl)-6-(piperidin-4-ylthio)imidazo[1,2-b]pyridazin-8-amine], the half-maximal inhibitory concentration (IC50) in [1] is under 100 nM; in assay [2] (setting [10]) it was 1000 to 5000 nM; in assay [3] (setting [10]), 1000 to 5000 nM; in assay [7], 1000 to 5000 nM; in assay [4] (setting [11]), 1000 to 5000 nM; in assay [8] it was under 1000 nM. The compound also came in with a half-inhibitory concentration (IC50) in assay [9] of 1000 to 5000 nM.

By IC50 is commonly meant the concentration that inhibits the measured activity by half.
